{"source": "patent US12077503B2", "about": "“Substituted cyclic amides and their use as herbicides” (FMC CORPORATION, priority 2015, dated 2024)", "type_in_all_cases": "in vivo", "key": {"corn (Zea mays) [1]": {"test_system": "corn (Zea mays)", "assay": "Test G Pre-Emergence Protocol", "conditions": "Zea mays, pre-emergence, 312 h, evaluated after 13 days", "outline": "(§1)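 Test compound in 0.5% Tween 20 acetone/water (50:50) was applied at three rates (15.625, 62.5, 250 g/ha) to soil sown one day earlier. After 13 days plants were scored for injury, where 0 means unaffected and 100 means completely damaged.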"}, "[2]": {"test_system": "barnyardgrass (Echinochloa crus-galli)", "assay": "Test G Pre-Emergence Protocol", "conditions": "Echinochloa crus-galli, pre-emergence, 312 h, evaluated after 13 days", "outline": "as §1"}, "[3]": {"test_system": "redroot pigweed (Amaranthus retroflexus)", "assay": "Test G Pre-Emergence Protocol", "conditions": "Amaranthus retroflexus, pre-emergence, 312 h, evaluated after 13 days", "outline": "as §1"}, "[4]": {"test_system": "velvetleaf (Abutilon theophrasti)", "assay": "Test G Pre-Emergence Protocol", "conditions": "Abutilon theophrasti, pre-emergence, 312 h, evaluated after 13 days", "outline": "as §1"}, "[5]": {"test_system": "ivy-leaved morning glory (Ipomoea hederacea)", "assay": "Test G Pre-Emergence Protocol", "conditions": "Ipomoea, pre-emergence, 312 h, evaluated after 13 days", "outline": "as §1"}, "[6]": {"test_system": "giant foxtail (Setaria faberi)", "assay": "Test G Pre-Emergence Protocol", "conditions": "Setaria faberi, pre-emergence, 312 h, evaluated after 13 days", "outline": "as §1"}, "corn (Zea mays) [7]": {"test_system": "corn (Zea mays)", "assay": "Test G Post-Emergence Protocol", "conditions": "Zea mays, post-emergence, 312 h", "outline": "(§2)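 Scores run 0 (no damage) to 100 (total damage) and were taken 13 days after spraying. Plants had been raised in pots for 8 days under glasshouse control (24/16 °C, 14 h photoperiod, 65% humidity) and then treated at 15.625, 62.5 or 250 g/ha.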"}, "[8]": {"test_system": "barnyardgrass (Echinochloa crus-galli)", "assay": "Test G Post-Emergence Protocol", "conditions": "Echinochloa crus-galli, post-emergence, 312 h", "outline": "as §2"}, "[9]": {"test_system": "redroot pigweed (Amaranthus retroflexus)", "assay": "Test G Post-Emergence Protocol", "conditions": "Amaranthus retroflexus, post-emergence, 312 h", "outline": "as §2"}, "[10]": {"test_system": "velvetleaf (Abutilon theophrasti)", "assay": "Test G Post-Emergence Protocol", "conditions": "Abutilon theophrasti, post-emergence, 312 h", "outline": "as §2"}, "[11]": {"test_system": "ivy-leaved morning glory (Ipomoea hederacea)", "assay": "Test G Post-Emergence Protocol", "conditions": "Ipomoea, post-emergence, 312 h", "outline": "as §2"}, "[12]": {"test_system": "giant foxtail (Setaria faberi)", "assay": "Test G Post-Emergence Protocol", "conditions": "Setaria faberi, post-emergence, 312 h", "outline": "as §2"}}, "data": [{"smiles": "Cc1ccnc(NC(=O)[C@@H]2C(=O)N(C)C[C@H]2c2ccc(C(F)(F)F)cc2)n1", "note": "(racemic) [Compound 1557]", "values": [{"measurement": "plant injury at 15.625 g/ha", "setting": "corn (Zea mays) [1]; 15.625 g ai/ha, read-out: Corn damage rating (100=total damage to plant; 0=no damage to plant)", "value": 0, "unit": "%"}, {"measurement": "plant injury at 62.5 g/ha", "setting": "corn (Zea mays) [1]; 62.5 g ai/ha, 100=total damage to plant, 0=no damage to plant, read-out: plant damage rating, Corn", "value": 0, "unit": "%"}, {"measurement": "plant injury at 250 g/ha", "setting": "corn (Zea mays) [1]; 250 g ai/ha, read-out: Corn damage rating (100=total damage to plant; 0=no damage to plant)", "value": 10, "unit": "%"}, {"measurement": "pest or weed control at 15.625 g/ha", "setting": "[2]; 15.625 g ai/ha, read-out: Barnyard grass damage rating (100=total damage to plant; 0=no damage to plant)", "value": 0, "unit": "%"}, {"measurement": "pest or weed control at 62.5 g/ha", "setting": "[2]; 62.5 g ai/ha, 100=total damage to plant, 0=no damage to plant, read-out: plant damage rating, Barnyardgrass", "value": 0, "unit": "%"}, {"measurement": "pest or weed control at 250 g/ha", "setting": "[2]; 250 g ai/ha, read-out: Barnyardgrass damage rating (100=total damage to plant; 0=no damage to plant)", "value": 10, "unit": "%"}, {"measurement": "pest or weed control at 15.625 g/ha", "setting": "[3]; 15.625 g ai/ha, read-out: Pigweed, Redroot damage rating (100=total damage to plant; 0=no damage to plant)", "value": 0, "unit": "%"}, {"measurement": "pest or weed control at 62.5 g/ha", "setting": "[3]; 62.5 g ai/ha, 100=total damage to plant, 0=no damage to plant, read-out: plant damage rating, Pigweed, Redroot", "value": 0, "unit": "%"}, {"measurement": "pest or weed control at 250 g/ha", "setting": "[3]; 250 g ai/ha, read-out: Pigweed, Redroot damage rating (100=total damage to plant; 0=no damage to plant)", "value": 0, "unit": "%"}, {"measurement": "pest or weed control at 15.625 g/ha", "setting": "[4]; 15.625 g ai/ha, read-out: Velvetleaf damage rating (100=total damage to plant; 0=no damage to plant)", "value": 0, "unit": "%"}, {"measurement": "pest or weed control at 62.5 g/ha", "setting": "[4]; 62.5 g ai/ha, 100=total damage to plant, 0=no damage to plant, read-out: plant damage rating, Velvetleaf", "value": 0, "unit": "%"}, {"measurement": "pest or weed control at 250 g/ha", "setting": "[4]; 250 g ai/ha, read-out: Velvetleaf damage rating (100=total damage to plant; 0=no damage to plant)", "value": 0, "unit": "%"}, {"measurement": "pest or weed control at 15.625 g/ha", "setting": "[5]; 15.625 g ai/ha, read-out: Morning-glory, Ivy-leaved damage rating (100=total damage to plant; 0=no damage to plant)", "value": 0, "unit": "%"}, {"measurement": "pest or weed control at 62.5 g/ha", "setting": "[5]; 62.5 g ai/ha, 100=total damage to plant, 0=no damage to plant, read-out: plant damage rating, Morningglory, Ivy-leaved", "value": 0, "unit": "%"}, {"measurement": "pest or weed control at 250 g/ha", "setting": "[5]; 250 g ai/ha, read-out: Morningglory, Ivy-leaved damage rating (100=total damage to plant; 0=no damage to plant)", "value": 0, "unit": "%"}, {"measurement": "pest or weed control at 15.625 g/ha", "setting": "[6]; 15.625 g ai/ha, read-out: Foxtail, Giant damage rating (100=total damage to plant; 0=no damage to plant)", "value": 0, "unit": "%"}, {"measurement": "pest or weed control at 62.5 g/ha", "setting": "[6]; 62.5 g ai/ha, 100=total damage to plant, 0=no damage to plant, read-out: plant damage rating, Foxtail, Giant", "value": 0, "unit": "%"}, {"measurement": "pest or weed control at 250 g/ha", "setting": "[6]; 250 g ai/ha, read-out: Foxtail, Giant damage rating (100=total damage to plant; 0=no damage to plant)", "value": 20, "unit": "%"}, {"measurement": "plant injury at 15.625 g/ha", "setting": "corn (Zea mays) [7]; 15.625 g ai/ha, evaluated after 13 days (100=total damage to plant; 0=no damage to plant), read-out: Corn damage rating", "value": 0, "unit": "%"}, {"measurement": "plant injury at 62.5 g/ha", "setting": "corn (Zea mays) [7]; 62.5 g ai/ha, evaluated after 13 days, read-out: Corn damage rating (100=total damage to plant; 0=no damage to plant)", "value": 0, "unit": "%"}, {"measurement": "plant injury at 250 g/ha", "setting": "corn (Zea mays) [7]; 250 g ai/ha, evaluated after 13 days, read-out: damage to plant, Corn (100=total damage to plant; 0=no damage to plant)", "value": 20, "unit": "%"}, {"measurement": "pest or weed control at 15.625 g/ha", "setting": "[8]; 15.625 g ai/ha, evaluated after 13 days (100=total damage to plant; 0=no damage to plant), read-out: Barnyardgrass damage rating", "value": 0, "unit": "%"}, {"measurement": "pest or weed control at 62.5 g/ha", "setting": "[8]; 62.5 g ai/ha, evaluated after 13 days, read-out: Barnyardgrass damage rating (100=total damage to plant; 0=no damage to plant)", "value": 20, "unit": "%"}, {"measurement": "pest or weed control at 250 g/ha", "setting": "[8]; 250 g ai/ha, evaluated after 13 days, read-out: damage to plant, Barnyardgrass (100=total damage to plant; 0=no damage to plant)", "value": 20, "unit": "%"}, {"measurement": "pest or weed control at 15.625 g/ha", "setting": "[9]; 15.625 g ai/ha, evaluated after 13 days (100=total damage to plant; 0=no damage to plant), read-out: Pigweed, Redroot damage rating", "value": 0, "unit": "%"}, {"measurement": "pest or weed control at 62.5 g/ha", "setting": "[9]; 62.5 g ai/ha, evaluated after 13 days, read-out: Pigweed, Redroot damage rating (100=total damage to plant; 0=no damage to plant)", "value": 0, "unit": "%"}, {"measurement": "pest or weed control at 250 g/ha", "setting": "[9]; 250 g ai/ha, evaluated after 13 days, read-out: damage to plant, Pigweed, Redroot (100=total damage to plant; 0=no damage to plant)", "value": 0, "unit": "%"}, {"measurement": "pest or weed control at 15.625 g/ha", "setting": "[10]; 15.625 g ai/ha, evaluated after 13 days (100=total damage to plant; 0=no damage to plant), read-out: Velvetleaf damage rating", "value": 0, "unit": "%"}, {"measurement": "pest or weed control at 62.5 g/ha", "setting": "[10]; 62.5 g ai/ha, evaluated after 13 days, read-out: Velvetleaf damage rating (100=total damage to plant; 0=no damage to plant)", "value": 0, "unit": "%"}, {"measurement": "pest or weed control at 250 g/ha", "setting": "[10]; 250 g ai/ha, evaluated after 13 days, read-out: damage to plant, Velvetleaf (100=total damage to plant; 0=no damage to plant)", "value": 10, "unit": "%"}, {"measurement": "pest or weed control at 15.625 g/ha", "setting": "[11]; 15.625 g ai/ha, evaluated after 13 days (100=total damage to plant; 0=no damage to plant), read-out: Morningglory, Ivy-leaved damage rating", "value": 0, "unit": "%"}, {"measurement": "pest or weed control at 62.5 g/ha", "setting": "[11]; 62.5 g ai/ha, evaluated after 13 days, read-out: Morningglory, Ivy-leaved damage rating (100=total damage to plant; 0=no damage to plant)", "value": 0, "unit": "%"}, {"measurement": "pest or weed control at 250 g/ha", "setting": "[11]; 250 g ai/ha, evaluated after 13 days, read-out: damage to plant, Morningglory, Ivy-leaved (100=total damage to plant; 0=no damage to plant)", "value": 0, "unit": "%"}, {"measurement": "pest or weed control at 15.625 g/ha", "setting": "[12]; 15.625 g ai/ha, evaluated after 13 days (100=total damage to plant; 0=no damage to plant), read-out: Foxtail, Giant damage rating", "value": 0, "unit": "%"}, {"measurement": "pest or weed control at 62.5 g/ha", "setting": "[12]; 62.5 g ai/ha, evaluated after 13 days, read-out: Foxtail, Giant damage rating (100=total damage to plant; 0=no damage to plant)", "value": 0, "unit": "%"}, {"measurement": "pest or weed control at 250 g/ha", "setting": "[12]; 250 g ai/ha, evaluated after 13 days, read-out: damage to plant, Foxtail, Giant (100=total damage to plant; 0=no damage to plant)", "value": 10, "unit": "%"}]}]}
